Entries after “also recorded” stand apart in the source; their conditions may differ. Where two headings read alike, the source gives them in different places.
Experiments:
[1] = biological target: T1, PfFNT G107S-GFP (Plasmodium falciparum, UniProt O77389, G107S); test: FCCS equilibrium competition binding, PfFNT G107S mutant
T1 construct: The DNA of full-length PfFNT from Plasmodium falciparum 3D7 was cloned as a C-terminal GFP fusion; expressed in transfected cells; intact cells for imaging, LMNG-solubilized membranes for FCCS
Procedure: Figure 4 Affinity determination of BH296, BH267.meta to PfFNT and PfFNT G107S, and equilibrium saturation binding of BH296 and BH267.meta to PfFNT and PfFNT G107S. […] BH267.meta bound to 100% of the GFP-fusions of wildtype PfFNT. […] (c) Membrane preparations containing 10 nM of PfFNT-GFP were incubated with 70 nM BH296-DY647, and associated complexes competed with free compounds BH267.meta and BH296 to assess their Ki values. […] (e) Membrane preparations containing GFP fusions of mutant PfFNT G107S were mixed with 150 nM of the labeled BH267.meta tracer and competed with BH267.meta and BH296.
The Ki values calculated for the interaction of BH296 and BH267.meta to mutant PfFNT G107S confirm the affinities observed for the direct interaction with labeled inhibitors.
FCCS measurements were conducted in 384-well glass-bottom plates (cat. no PS96B-G175, SWISSCI, Switzerland) using an Insight plate reader (Evotec Technologies, Germany) fitted with a U-Apo300 40x water immersion lens, NA 1.15 (Olympus, Japan). The 488 nm laser line of an argon-ion laser and the light of a 633 nm helium–neon laser were used for excitation. Fluorescence fluctuations were recorded for 8 s with 12 repetitions and analyzed afterward using FCS+plus Analyze 1.1P (Evotec technologies, Version 1.2.5g). FCCS analysis was carried out as described previously. Briefly, for measuring the dissociation constant (KD), a titration series of 12 dilutions was prepared, where the concentration of the lysates obtained from HEK cells expressing GFP-fusions of PfFNT WT and G107S was kept constant, and the concentration of the labeled binding partner (BH296-DY647 and BH267.meta-DY647, respectively) was varied. […] All KD and IC50 values, as well as kinetic parameters, were determined from three independently repeated experiments. The figures show one representative measurement; however, the calculated KD, Ki, kon and koff values are presented as an average of the three measurements ± SD. […]

[2] = biological target: T1, PfFNT G107S-GFP; test: Live cell confocal imaging, co-localization with PfFNT G107S-GFP in HEK293 cells; format: cell-based; conditions: for competition of BH267.meta-DY647 membrane localization by unlabeled compound: 100 µM unlabeled compound; for co-localization / membrane localization: 50 nM probe, 0.05% Triton X-100
Excerpt: A PfFNT G107S mutant generated by sublethal dosing of BH296 in vitro parasite cultures has gained attention as it confers resistance against BH296, but the introduction of a scaffold nitrogen atom (BH267.meta; Figure 1) restored the effectiveness of the inhibitor [11]. The G107S mutation site is located at the cytoplasmic entrance of PfFNT and narrows the transport path precluding the binding of BH296 via sterical hinderance of the phenyl moiety of the compound. Exchange of the carbon atom in the meta-position of the aromatic ring of BH296 for a nitrogen atom introduced a hydrogen bond acceptor site for the serine hydroxyl of the resistance mutation and restored binding to the mutant PfFNT G107S. We analyzed the interaction of BH267.meta by cellular imaging. For this, we generated labeled BH267.meta-DY647 (Figure 1), expressed PfFNT G107S in HEK cells, and incubated the cells with BH296-DY647 or BH 267.meta-DY647 after treatment with 0.05% Triton X-100.
Whether these differences in signal intensity can be attributed to different affinities, to expression levels of the target protein, or to the cellular localization cannot be concluded from imaging-based experiments but requires biophysical analytical methods. However, the observation confirms previous findings that show the activity of BH267.meta on PfFNT G107S.
(§1) The confocal laser scanning microscopy was performed on an LSM 510 confocal microscope connected to an Axiovert 200M equipped with a C-Apochromat 40×/1.2 W water immersion objective (Carl Zeiss, Germany). The red fluorophore (Dy-647) was excited using a 633 nm helium–neon laser, whereas the green fluorophore (GFP) was excited using a 488 nm argon-ion laser.

[3] = tested on: FNT-type lactate transporters of the remaining four human-pathogenic plasmodia; conditions: cited from earlier work
[4] = biological target: T2, hsMCT4 (Homo sapiens, UniProt O15427); test: Live cell confocal imaging, co-localization with hsMCT4-GFP in HEK cells; format: cell-based; conditions: 50 nM BH296-DY647, hsMCT4-GFP in HEK cells
T2 construct: expressed in transfected cells
T2 sequence (O15427 1-465): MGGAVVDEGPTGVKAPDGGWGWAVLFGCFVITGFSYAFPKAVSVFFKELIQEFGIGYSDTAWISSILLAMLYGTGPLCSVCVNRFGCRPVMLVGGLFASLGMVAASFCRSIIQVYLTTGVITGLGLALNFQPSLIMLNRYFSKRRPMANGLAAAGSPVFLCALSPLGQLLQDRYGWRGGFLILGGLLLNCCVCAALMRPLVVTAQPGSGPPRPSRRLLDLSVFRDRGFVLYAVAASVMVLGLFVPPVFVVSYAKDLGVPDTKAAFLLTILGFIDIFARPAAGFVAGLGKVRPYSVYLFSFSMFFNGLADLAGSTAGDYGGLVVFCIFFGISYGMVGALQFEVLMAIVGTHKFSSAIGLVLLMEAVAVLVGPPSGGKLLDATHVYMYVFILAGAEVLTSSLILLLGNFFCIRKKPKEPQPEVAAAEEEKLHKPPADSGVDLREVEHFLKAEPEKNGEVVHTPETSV
Procedure: The monocarboxylate transporter hsMCT4 is a human functional homolog of PfFNT, but both proteins show no similarity on the basis of their primary sequence or transport mechanism.
as §1

T1 sequence (O77389 whole entry G107S, the tested form may be a part): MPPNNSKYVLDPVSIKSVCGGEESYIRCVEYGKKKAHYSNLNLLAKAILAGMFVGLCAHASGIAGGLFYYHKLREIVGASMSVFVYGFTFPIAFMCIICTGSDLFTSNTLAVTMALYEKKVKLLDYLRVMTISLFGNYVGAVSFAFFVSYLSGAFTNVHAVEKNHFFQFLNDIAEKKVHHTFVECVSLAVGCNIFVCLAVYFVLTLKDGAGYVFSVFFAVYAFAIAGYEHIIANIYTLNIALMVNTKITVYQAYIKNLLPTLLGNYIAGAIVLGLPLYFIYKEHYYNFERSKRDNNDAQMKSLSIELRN

O=C(/C=C(\O)C(F)(F)C(F)(F)F)c1cccnc1 [BH267.meta]
Ki ([1]; fluorescent probe BH267.meta-DY647 150 nM, competitor up to 10 µM, read-out: Ki Competitor): 417 ± 16 nM
competition of BH267.meta-DY647 membrane localization by unlabeled compound [2]: prevents membrane localization; also recorded: could be competed
concentration blocking FNT-type lactate transporters [3]: sub-micromolar

CCN1/C(=C/C=C/C=C/C2=[N+](CC)c3ccc(S(=O)(=O)O)cc3C2(C)CCCC(=O)NCCOCCOCCOCCOCCC(=O)NCCCOc2ccc(C(=O)/C=C(\O)C(F)(F)C(F)(F)F)cc2)C(C)(C)c2cc(S(=O)(=O)[O-])ccc21 (stereo not drawn) [BH296-DY647]
co-localization on the plasma membrane [4]: did not show any co-localization

O=C(C=C(O)C(F)(F)C(F)(F)F)c1ccc(O)cc1 [BH296, 4,4,5,5,5-pentafluoro-3-hydroxy-1-(4-hydroxyphenyl)pent-2-en-1-one]
Ki [1]: > 10000 nM
Ki Competitor ([1]; fluorescent probe BH267.meta-DY647 150 nM, competitor up to 10 µM): did not compete; also recorded: does not interfere
co-localization / membrane localization [2]: did not localize to membranes
competition of BH267.meta-DY647 membrane localization by unlabeled compound [2]: cannot compete

CCN1/C(=C/C=C/C=C/C2=[N+](CC)c3ccc(S(=O)(=O)O)cc3C2(C)CCCC(=O)NCCOCCOCCOCCOCCC(=O)NCCCOc2ccc(C(=O)/C=C(\O)C(F)(F)C(F)(F)F)cn2)C(C)(C)c2cc(S(=O)(=O)[O-])ccc21 (stereo not drawn) [BH267.meta-DY647]
co-localization / membrane localization [2]: co-localizes; also recorded: clear membrane stain

Reference: PMC8399565, “Fluorescence Cross-Correlation Spectroscopy Yields True Affinity and Binding Kinetics of Plasmodium Lactate Transport Inhibitors” (Pharmaceuticals, 2021)
